Test results from PMC5218480 (PLoS ONE, 2017).

System: MV-4-11 cells
Assay: Gene expression microarray analysis (Affymetrix PrimeView) and GSEA
Assay type: cell-based, human
Parameters: RFU PODN (11730768_x_at) / Fold change /veh PODN (11730768_x_at) / RFU LINC00158 (11744669_a_at) / Fold change /veh LINC00158 (11744669_a_at) / RFU DUSP10 (11751237_a_at) / Fold change /veh DUSP10 (11751237_a_at) / RFU ID3 (11757404_x_at) / Fold change /veh ID3 (11757404_x_at) / RFU PLEKHG5 (11737974_s_at) / Fold change /veh PLEKHG5 (11737974_s_at) / RFU LRRC4B (11730491_at) / Fold change /veh LRRC4B (11730491_at) / RFU GIMAP4 (11747438_a_at) / Fold change /veh GIMAP4 (11747438_a_at) / RFU KRT8 (11758183_x_at) / Fold change /veh KRT8 (11758183_x_at) / RFU CNN1 (11734310_a_at) / Fold change /veh CNN1 (11734310_a_at) / RFU VPS37D (11726825_at) / Fold change /veh VPS37D (11726825_at) / RFU C10orf10 (11716522_x_at) / Fold change /veh C10orf10 (11716522_x_at) / RFU KIR2DL2 /// KIR2DL4 /// KIR2DL5A /// KIR2DL5B /// KIR2DS1 /// KIR2DS2 /// KIR2DS3 /// KIR2DS4 /// KIR3DL3 /// KIR3DL3 /// KIR3DS1 (11738374_at) / Fold change /veh KIR2DL2 /// KIR2DL4 /// KIR2DL5A /// KIR2DL5B /// KIR2DS1 /// KIR2DS2 /// KIR2DS3 /// KIR2DS4 /// KIR3DL3 /// KIR3DL3 /// KIR3DS1 (11738374_at) / RFU C1QL1 (11718748_at) / Fold change /veh C1QL1 (11718748_at) / RFU TMPRSS4 (11747572_a_at) / Fold change /veh TMPRSS4 (11747572_a_at) / RFU HAMP (11756126_x_at) / Fold change /veh HAMP (11756126_x_at) / RFU RNFT2 (11725882_a_at) / Fold change /veh RNFT2 (11725882_a_at) / RFU NR4A2 (11747474_a_at) / Fold change /veh NR4A2 (11747474_a_at) / RFU ABCC12 (11746883_a_at) / Fold change /veh ABCC12 (11746883_a_at) / RFU TMEM136 (11760407_x_at) / Fold change /veh TMEM136 (11760407_x_at) / RFU CLDN22 /// WWC2 (11732394_at) / Fold change /veh CLDN22 /// WWC2 (11732394_at) / RFU HLA-DPB1 (11760878_x_at) / Fold change /veh HLA-DPB1 (11760878_x_at) / RFU SPINT1 (11716480_a_at) / Fold change /veh SPINT1 (11716480_a_at) / RFU GAP43 (11754022_s_at) / Fold change /veh GAP43 (11754022_s_at) / RFU A4GNT (11735810_at) / Fold change /veh A4GNT (11735810_at) / RFU PRB3 (11715151_x_at) / Fold change /veh PRB3 (11715151_x_at) / RFU TUBB4B (11761932_at) / Fold change /veh TUBB4B (11761932_at) / RFU CAPN14 (11732068_a_at) / Fold change /veh CAPN14 (11732068_a_at) / RFU TMCC2 (11721928_a_at) / Fold change /veh TMCC2 (11721928_a_at) / RFU IRGQ (11745062_a_at) / Fold change /veh IRGQ (11745062_a_at) / RFU FAM174B (11720279_a_at) / Fold change /veh FAM174B (11720279_a_at) / RFU TMPRSS4 (11748680_a_at) / Fold change /veh TMPRSS4 (11748680_a_at) / RFU FAM212B (11763350_a_at) / Fold change /veh FAM212B (11763350_a_at) / RFU PLEKHG5 (11743358_a_at) / Fold change /veh PLEKHG5 (11743358_a_at) / RFU ZSCAN30 (11745921_a_at) / Fold change /veh ZSCAN30 (11745921_a_at) / RFU CMKLR1 (11741424_a_at) / Fold change /veh CMKLR1 (11741424_a_at) / RFU LOC101060620 /// MAPK8IP1 (11723275_at) / Fold change /veh LOC101060620 /// MAPK8IP1 (11723275_at) / RFU SPTSSB (11747773_x_at) / Fold change /veh SPTSSB (11747773_x_at) / RFU PRSS12 (11739890_at) / Fold change /veh PRSS12 (11739890_at) / RFU BIN1 (11741810_x_at) / Fold change /veh BIN1 (11741810_x_at) / RFU WNT11 (11732464_a_at) / Fold change /veh WNT11 (11732464_a_at) / RFU C10orf10 (11716521_a_at) / Fold change /veh C10orf10 (11716521_a_at) / RFU C5orf56 (11738089_at) / Fold change /veh C5orf56 (11738089_at) / RFU CYB561 (11721691_x_at) / Fold change /veh CYB561 (11721691_x_at) / RFU ANKRD19P (11752326_a_at) / Fold change /veh ANKRD19P (11752326_a_at) / RFU OR2T12 /// OR2T33 /// OR2T8 (11738714_s_at) / Fold change /veh OR2T12 /// OR2T33 /// OR2T8 (11738714_s_at) / RFU VCAN (11748164_a_at) / Fold change /veh VCAN (11748164_a_at) / RFU JSRP1 (11732532_at) / Fold change /veh JSRP1 (11732532_at) / RFU KRTAP10-11 (11738290_x_at) / Fold change /veh KRTAP10-11 (11738290_x_at) / RFU MYO3A (11730013_a_at) / Fold change /veh MYO3A (11730013_a_at) / RFU EBF3 (11725865_a_at) / Fold change /veh EBF3 (11725865_a_at) / RFU CAMK2N1 (11719241_x_at) / Fold change /veh CAMK2N1 (11719241_x_at) / RFU C5orf56 (11738088_a_at) / Fold change /veh C5orf56 (11738088_a_at) / RFU OLFML3 (11715873_a_at) / Fold change /veh OLFML3 (11715873_a_at) / RFU LOC100653217 /// NTM (11731650_a_at) / Fold change /veh LOC100653217 /// NTM (11731650_a_at) / RFU MAPK11 (11762145_a_at) / Fold change /veh MAPK11 (11762145_a_at) / RFU FIZ1 (11724087_x_at) / Fold change /veh FIZ1 (11724087_x_at) / RFU OASL (11726364_x_at) / Fold change /veh OASL (11726364_x_at) / RFU SOX15 (11748057_x_at) / Fold change /veh SOX15 (11748057_x_at) / RFU CD79A (11719716_a_at) / Fold change /veh CD79A (11719716_a_at) / RFU HIST1H1D (11736915_at) / Fold change /veh HIST1H1D (11736915_at) / RFU CASKIN2 (11723855_a_at) / Fold change /veh CASKIN2 (11723855_a_at) / RFU LOC730098 (11760151_x_at) / Fold change /veh LOC730098 (11760151_x_at) / RFU OR4N2 (11742367_at) / Fold change /veh OR4N2 (11742367_at) / RFU PRRT2 (11749266_a_at) / Fold change /veh PRRT2 (11749266_a_at) / RFU SNX32 (11753110_a_at) / Fold change /veh SNX32 (11753110_a_at) / RFU CDHR5 (11726645_a_at) / Fold change /veh CDHR5 (11726645_a_at) / RFU RCAN1 (11760418_a_at) / Fold change /veh RCAN1 (11760418_a_at) / RFU FAM167A (11723789_a_at) / Fold change /veh FAM167A (11723789_a_at) / RFU FAM26E (11764081_at) / Fold change /veh FAM26E (11764081_at) / RFU ISYNA1 (11749810_s_at) / Fold change /veh ISYNA1 (11749810_s_at) / RFU ACY1 (11761880_at) / Fold change /veh ACY1 (11761880_at) / RFU 11764098_at / Fold change /veh 11764098_at / RFU SAMD14 (11745864_x_at) / Fold change /veh SAMD14 (11745864_x_at) / RFU NPB (11741838_a_at) / Fold change /veh NPB (11741838_a_at) / RFU TMPRSS6 (11731388_a_at) / Fold change /veh TMPRSS6 (11731388_a_at) / RFU KRTAP10-2 (11738614_at) / Fold change /veh KRTAP10-2 (11738614_at) / RFU ARHGAP8 /// PRR5-ARHGAP8 (11727945_x_at) / Fold change /veh ARHGAP8 /// PRR5-ARHGAP8 (11727945_x_at) / RFU KRTAP5-7 /// NADSYN1 (11734609_at) / Fold change /veh KRTAP5-7 /// NADSYN1 (11734609_at) / RFU RASL12 (11751679_a_at) / Fold change /veh RASL12 (11751679_a_at) / RFU CDKN2B (11736163_a_at) / Fold change /veh CDKN2B (11736163_a_at) / RFU PRF1 (11729649_at) / Fold change /veh PRF1 (11729649_at) / RFU, ZNF638 /// ZNF638-IT1 / Fold change vs veh, ZNF638 /// ZNF638-IT1 / RFU, PANK3 / Fold change vs veh, PANK3 / RFU, SH3YL1 / Fold change vs veh, SH3YL1 / RFU, ZEB2 / Fold change vs veh, ZEB2 / RFU, NRIP1 / Fold change vs veh, NRIP1 / RFU, PTTG1IP / Fold change vs veh, PTTG1IP / RFU, CAPN2 / Fold change vs veh, CAPN2 / RFU, MED14 / Fold change vs veh, MED14 / RFU, SNORA58 / Fold change vs veh, SNORA58 / RFU, C1orf63 / Fold change vs veh, C1orf63 / RFU, LRRFIP1 / Fold change vs veh, LRRFIP1 / RFU, NDUFAF7 / Fold change vs veh, NDUFAF7 / RFU, SLC12A2 / Fold change vs veh, SLC12A2 / RFU, IBTK / Fold change vs veh, IBTK / RFU, ESF1 / Fold change vs veh, ESF1 / Fold change vs veh, TMEM50B / RFU, TAOK1 / Fold change vs veh, TAOK1 / RFU, ACBD3 / Fold change vs veh, ACBD3 / RFU, TMA16 / Fold change vs veh, TMA16 / RFU, RWDD3 / Fold change vs veh, RWDD3 / RFU, BCAT1 / Fold change vs veh, BCAT1 / RFU, EDEM3 / Fold change vs veh, EDEM3 / RFU, TMEM33 / Fold change vs veh, TMEM33 / RFU, WDR75 / Fold change vs veh, WDR75 / RFU, AHCTF1 / Fold change vs veh, AHCTF1 / RFU, TFRC / Fold change vs veh, TFRC / RFU, ZDHHC17 / Fold change vs veh, ZDHHC17 / RFU, NOM1 / Fold change vs veh, NOM1 / RFU, ARL8B / Fold change vs veh, ARL8B / RFU, ZBTB11 / Fold change vs veh, ZBTB11 / RFU, TAMM41 / Fold change vs veh, TAMM41 / RFU, KIAA1704 /// LOC100996395 / Fold change vs veh, KIAA1704 /// LOC100996395 / RFU, ING1 / Fold change vs veh, ING1 / RFU, TRMT61B / Fold change vs veh, TRMT61B / RFU, FUBP3 / Fold change vs veh, FUBP3 / RFU, TP53 / Fold change vs veh, TP53 / RFU, TNKS2 / Fold change vs veh, TNKS2 / RFU, ZFP14 / Fold change vs veh, ZFP14 / RFU, ACTR2 / Fold change vs veh, ACTR2 / RFU, PPP3R1 / Fold change vs veh, PPP3R1 / RFU, PIK3R1 / Fold change vs veh, PIK3R1 / RFU, HNRNPA1 / Fold change vs veh, HNRNPA1 / RFU, RNF170 / Fold change vs veh, RNF170 / RFU, ZNF28 / Fold change vs veh, ZNF28 / RFU, RNGTT / Fold change vs veh, RNGTT / RFU, OGT / Fold change vs veh, OGT / RFU, BRD1 / Fold change vs veh, BRD1 / RFU, MARS / Fold change vs veh, MARS / RFU, ZNF655 / Fold change vs veh, ZNF655 / RFU, FAHD1 / Fold change vs veh, FAHD1 / RFU, BDP1 / Fold change vs veh, BDP1 / RFU, LRRCC1 / Fold change vs veh, LRRCC1 / RFU, ARID1A / Fold change vs veh, ARID1A / RFU, ZNF146 / Fold change vs veh, ZNF146 / RFU, ZNF330 / Fold change vs veh, ZNF330 / RFU, GPN3 / Fold change vs veh, GPN3 / RFU, C9orf123 / Fold change vs veh, C9orf123 / RFU, N4BP2L2 / Fold change vs veh, N4BP2L2 / RFU, ARFIP1 / Fold change vs veh, ARFIP1 / RFU, FAM179B / Fold change vs veh, FAM179B / RFU, BCL10 / Fold change vs veh, BCL10 / RFU, UHRF1BP1L / Fold change vs veh, UHRF1BP1L / RFU, BET1 / Fold change vs veh, BET1 / RFU, CNOT2 / Fold change vs veh, CNOT2 / RFU, ZNF268 / Fold change vs veh, ZNF268 / Fold change vs veh, ZNF507 / RFU, DGCR2 / Fold change vs veh, DGCR2 / RFU, WDSUB1 / Fold change vs veh, WDSUB1 / Fold change vs veh, HSP90B1 /// MIR3652 / RFU, ADSS / Fold change vs veh, ADSS / RFU, GK / Fold change vs veh, GK / RFU, ZNF148 / Fold change vs veh, ZNF148 / RFU, TAF9 / Fold change vs veh, TAF9 / RFU, SLC1A5 / Fold change vs veh, SLC1A5 / RFU, SLMO2 / Fold change vs veh, SLMO2 / RFU, ABCC4 / Fold change vs veh, ABCC4 / RFU, LOC101060439 /// RAP1B / Fold change vs veh, LOC101060439 /// RAP1B / RFU, RFX7 / Fold change vs veh, RFX7 / RFU, GTPBP10 / Fold change vs veh, GTPBP10 / RFU, CNEP1R1 / Fold change vs veh, CNEP1R1 / RFU, BIVM-ERCC5 /// ERCC5 / Fold change vs veh, BIVM-ERCC5 /// ERCC5 / RFU, ILF3 / Fold change vs veh, ILF3 / RFU 11762660_at / Fold change /veh 11762660_at / RFU VCAN (11757783_s_at) / Fold change /veh VCAN (11757783_s_at) / RFU DDX43 (11728927_at) / Fold change /veh DDX43 (11728927_at) / RFU KRT8 (11758188_x_at) / Fold change /veh KRT8 (11758188_x_at) / RFU NKD1 (11759106_at) / Fold change /veh NKD1 (11759106_at) / RFU SRD5A1 (11742802_a_at) / Fold change /veh SRD5A1 (11742802_a_at) / RFU TPSAB1 /// TPSB2 (11721975_s_at) / Fold change /veh TPSAB1 /// TPSB2 (11721975_s_at) / RFU GSTM3 (11746129_a_at) / Fold change /veh GSTM3 (11746129_a_at) / RFU IL23R (11737362_x_at) / Fold change /veh IL23R (11737362_x_at) / RFU TMEM51 (11727254_a_at) / Fold change /veh TMEM51 (11727254_a_at) / RFU PIWIL2 (11732686_x_at) / Fold change /veh PIWIL2 (11732686_x_at) / RFU ORM1 (11744905_x_at) / Fold change /veh ORM1 (11744905_x_at) / RFU CCDC152 (11743942_at) / Fold change /veh CCDC152 (11743942_at) / RFU ECM1 (11717891_a_at) / Fold change /veh ECM1 (11717891_a_at) / RFU IL23R (11748794_a_at) / Fold change /veh IL23R (11748794_a_at) / RFU TNFAIP8L3 (11732012_x_at) / Fold change /veh TNFAIP8L3 (11732012_x_at) / RFU MBOAT4 (11741988_at) / Fold change /veh MBOAT4 (11741988_at) / RFU 11764193_at / Fold change /veh 11764193_at / RFU TMEM53 (11763286_at) / Fold change /veh TMEM53 (11763286_at) / RFU MAGEB2 (11727129_at) / Fold change /veh MAGEB2 (11727129_at) / RFU TMEM200A (11744735_a_at) / Fold change /veh TMEM200A (11744735_a_at) / RFU CCDC152 (11751479_a_at) / Fold change /veh CCDC152 (11751479_a_at) / RFU FAM211A (11726209_a_at) / Fold change /veh FAM211A (11726209_a_at) / RFU RGS16 (11746705_a_at) / Fold change /veh RGS16 (11746705_a_at) / RFU VCAN (11755009_s_at) / Fold change /veh VCAN (11755009_s_at) / RFU RHOB (11743442_s_at) / Fold change /veh RHOB (11743442_s_at) / RFU RGS16 (11720943_a_at) / Fold change /veh RGS16 (11720943_a_at) / RFU RGS16 (11720944_at) / Fold change /veh RGS16 (11720944_at) / RFU, VPS4B / Fold change vs veh, VPS4B / RFU, CREB1 / Fold change vs veh, CREB1 / RFU, DNAJC13 / Fold change vs veh, DNAJC13 / RFU, GNAQ / Fold change vs veh, GNAQ / RFU, CDK5R1 / Fold change vs veh, CDK5R1 / RFU, ZRANB3 / Fold change vs veh, ZRANB3 / RFU, CUL4A / Fold change vs veh, CUL4A / RFU, CCNY / Fold change vs veh, CCNY / RFU, UFL1 / Fold change vs veh, UFL1 / RFU, COG3 / Fold change vs veh, COG3 / RFU, DIAPH2 / Fold change vs veh, DIAPH2 / RFU, SKA2 / Fold change vs veh, SKA2 / RFU, AFF3 / Fold change vs veh, AFF3 / RFU, LMF1 / Fold change vs veh, LMF1 / RFU, IPO11 / Fold change vs veh, IPO11 / RFU, DFFB / Fold change vs veh, DFFB / RFU, FOXP1 / Fold change vs veh, FOXP1 / RFU, CARD8 / Fold change vs veh, CARD8 / RFU, STRN3 / Fold change vs veh, STRN3 / RFU, ADK / Fold change vs veh, ADK / RFU, RASSF2 / Fold change vs veh, RASSF2 / RFU, WIPF1 / Fold change vs veh, WIPF1 / RFU, LARP1B / Fold change vs veh, LARP1B / RFU, RASA1 / Fold change vs veh, RASA1 / RFU, RB1 / Fold change vs veh, RB1 / RFU, PPFIA1 / Fold change vs veh, PPFIA1 / RFU, MAT2A / Fold change vs veh, MAT2A / RFU, CCT5 / Fold change vs veh, CCT5 / RFU, WDR92 / Fold change vs veh, WDR92 / RFU, CUX1 / Fold change vs veh, CUX1 / RFU, TTC7A / Fold change vs veh, TTC7A / RFU, TMEM135 / Fold change vs veh, TMEM135 / RFU, DEPTOR / Fold change vs veh, DEPTOR / RFU, CPM / Fold change vs veh, CPM / RFU, DNAJB6 / Fold change vs veh, DNAJB6 / RFU, CACNA2D3 / Fold change vs veh, CACNA2D3 / RFU, DTX4 / Fold change vs veh, DTX4 / RFU, TFCP2 / Fold change vs veh, TFCP2 / RFU, GMCL1 /// GMCL1P1 / Fold change vs veh, GMCL1 /// GMCL1P1 / RFU, AEBP2 / Fold change vs veh, AEBP2 / RFU, SNHG1 /// SNORD22 /// SNORD25 /// SNORD26 /// SNORD27 /// SNORD28 /// SNORD29 /// SNORD31 / Fold change vs veh, SNHG1 /// SNORD22 /// SNORD25 /// SNORD26 /// SNORD27 /// SNORD28 /// SNORD29 /// SNORD31 / Fold change (Aza/veh), C12orf56 (ProbeSet 11735607_a_at) / Fold change (ACY-1035/veh), C12orf56 (ProbeSet 11735607_a_at) / Fold change (Aza/veh), FGFR1OP (ProbeSet 11751329_s_at) / Fold change (ACY-1035/veh), FGFR1OP (ProbeSet 11751329_s_at) / Fold change (Aza/veh), VPS36 (ProbeSet 11739960_a_at) / Fold change (ACY-1035/veh), VPS36 (ProbeSet 11739960_a_at) / RFU SYPL1 (11715823_x_at) / Fold change /veh SYPL1 (11715823_x_at) / RFU IGFBP7 (11715501_s_at) / Fold change /veh IGFBP7 (11715501_s_at) / RFU REEP3 (11722064_at) / Fold change /veh REEP3 (11722064_at) / RFU IGLL1 (11728026_x_at) / Fold change /veh IGLL1 (11728026_x_at): dose or concentration left out as unconfirmed
Details: ProbeSet 11758397_s_at; LIST B

With `Nc1ncn([C@@H]2O[C@H](CO)[C@@H](O)[C@H]2O)c(=O)n1` [azacitidine] the “RFU, RNF170” value was 159.42 RFU.
